Some test systems named below: BT-549 breast; EKVX NSCLC; HCT-116 colon; HOP-92 NSCLC; K-562 leukemia; SF-295 CNS; SNB-19 CNS; UACC-62 melanoma; SF-539 CNS; HT29 colon.
Assay in all cases: growth of human tumour cells (NCI), 48 h

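Protocol summary: plate cells (96-well), add compound at 5 concentrations, incubate 48 h, interpolate endpoints linearly. At the GI50, growth is halved. TGI: total growth inhibition.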

`COC(=O)c1ccc(CN2C(=O)C(Cl)=C(Nc3ccc(OC)c(Cl)c3)C2=O)cc1`: the GI50 in the assay with BT-549 breast is 11.3 µM; in the assay with EKVX NSCLC, 22.3 µM; in the assay with HCT-116 colon, 13.3 µM; in the assay on HOP-92 NSCLC, more than 50 µM; with K-562 leukemia, 4.17 µM; in the assay on SF-295 CNS it was 20.4 µM. For the same compound, the GI50 in the assay on SNB-19 CNS is 5.93 µM; in the assay with UACC-62 melanoma it was 7.32 µM. The TGI with BT-549 breast is 26.7 µM; in the assay on EKVX NSCLC, more than 50 µM; in the assay with HCT-116 colon it was more than 50 µM; with HOP-92 NSCLC, more than 50 µM; with K-562 leukemia it was more than 50 µM; in the assay with SF-295 CNS it was more than 50 µM. For the same compound, the results for the TGI with SNB-19 CNS and in the assay with UACC-62 melanoma were 22.3 µM and 21.1 µM, respectively.

With `CCCCCCCCCCCCCCCCCCNC(=O)OCC(CNS(=O)(=O)CCC[n+]1cccc2ccccc21)COC` (stereo not drawn), the TGI with BT-549 breast was 5.41 µM; in the assay with EKVX NSCLC, 65.7 µM; in the assay on HCT-116 colon, 5.78 µM; with HOP-92 NSCLC, 4.01 µM; in the assay with K-562 leukemia, more than 100 µM; with SF-295 CNS it was 30.3 µM. Moreover, the TGI with SF-539 CNS worked out at 5.63 µM; in the assay with SNB-19 CNS, 6.13 µM; with UACC-62 melanoma, 8.21 µM.

For `CNCCNc1nc2ccccc2c2c(=O)c3cc(F)ccc3sc12`, the GI50 is 3.59 µM with BT-549 breast; 1.74 µM in the assay with EKVX NSCLC; 1.49 µM in the assay on HCT-116 colon; 1.73 µM in the assay with HOP-92 NSCLC; 1.59 µM in the assay with HT29 colon; 1.64 µM in the assay on K-562 leukemia. Moreover, the GI50 is 1.82 µM with SF-295 CNS, 1.71 µM in the assay on SF-539 CNS and 1.73 µM in the assay on UACC-62 melanoma. Moreover, the TGI is 14.9 µM in the assay with BT-549 breast; 3.57 µM in the assay with EKVX NSCLC; 2.81 µM in the assay on HCT-116 colon; 7.42 µM in the assay on HOP-92 NSCLC; 3.2 µM in the assay with HT29 colon; 4.35 µM with K-562 leukemia. The results for the TGI with SF-295 CNS, with SF-539 CNS and in the assay with UACC-62 melanoma were 3.4 µM, 3.13 µM and 3.18 µM, respectively.

On to `C/C=C(/C)c1cnc(CC(C)C)c(=O)[nH]1`, for which the TGI with BT-549 breast, in the assay with EKVX NSCLC, in the assay on HCT-116 colon, in the assay with HOP-92 NSCLC, with HT29 colon and with K-562 leukemia was more than 100 µM throughout. In addition, the TGI in the assay on SF-295 CNS, in the assay with SNB-19 CNS and with UACC-62 melanoma was more than 100 µM throughout.

Turning to `Cn1cc(C2=C(c3cn(C)c4cc(N)ccc34)C(=O)NC2=O)c2ccccc21`, the GI50 in the assay on BT-549 breast was 4.32 µM; with HCT-116 colon, 1.28 µM; in the assay with HOP-92 NSCLC, 5.86 µM; in the assay on HT29 colon it was 1.07 µM; in the assay on K-562 leukemia, 0.396 µM; in the assay on SF-295 CNS, 0.909 µM. Further, the GI50 in the assay with SF-539 CNS was 0.568 µM; with SNB-19 CNS, 5.45 µM; with UACC-62 melanoma it was 3.44 µM. For the same compound, the TGI was 14.6 µM in the assay with BT-549 breast; more than 25 µM in the assay with HCT-116 colon; more than 18.9 µM in the assay on HOP-92 NSCLC; 6.8 µM in the assay on HT29 colon; more than 23.8 µM in the assay on K-562 leukemia; more than 25 µM in the assay with SF-295 CNS. The results for the TGI in the assay with SF-539 CNS, in the assay on SNB-19 CNS and in the assay on UACC-62 melanoma were 2.27 µM, 24.3 µM and 8.39 µM, respectively.

With `CC1(C)C(=O)C=CC2(C)C1CC(O)C1(C)C2CCC2(C)C(c3ccoc3)OC(=O)C3OC321` (stereo not drawn), the TGI in the assay on BT-549 breast was 41.1 µM; in the assay on EKVX NSCLC it was 33.2 µM; with HCT-116 colon, 31.7 µM; in the assay on HOP-92 NSCLC it was 38.5 µM; in the assay on HT29 colon, 33.7 µM; in the assay with K-562 leukemia, more than 100 µM. The TGI in the assay on SF-295 CNS was determined as 53.1 µM; in the assay with SNB-19 CNS, 44.3 µM; with UACC-62 melanoma, 26.9 µM.

`CCOC(=O)Nc1nc2cc(OCC)ccc2s1`: the GI50 was more than 100 µM in the assay with BT-549 breast; 6.82 µM in the assay on HCT-116 colon; more than 100 µM in the assay with HOP-92 NSCLC; 4.26 µM in the assay with HT29 colon; 3 µM with K-562 leukemia; more than 100 µM in the assay with SF-295 CNS. The GI50 with SF-539 CNS is more than 100 µM; with SNB-19 CNS it was more than 100 µM; with UACC-62 melanoma, 58.3 µM. The TGI with BT-549 breast, with HCT-116 colon, in the assay with HOP-92 NSCLC, in the assay with HT29 colon, with K-562 leukemia and in the assay with SF-295 CNS was more than 100 µM each time. In addition, the TGI in the assay with SF-539 CNS, in the assay on SNB-19 CNS and in the assay with UACC-62 melanoma was more than 100 µM in each case.

For the compound `CCN(CC)CCOc1c(OC)c(Br)cc2c(C)c(C(=O)OC)oc12`, the GI50 in the assay on BT-549 breast was 1.61 µM; in the assay with EKVX NSCLC it was 1.55 µM; with HCT-116 colon it was 1.17 µM; in the assay with K-562 leukemia, 0.332 µM; in the assay on SF-295 CNS it was 1.18 µM; with SF-539 CNS, 1.47 µM. The results for the GI50 in the assay on SNB-19 CNS and in the assay with UACC-62 melanoma were 2.31 µM and 1.33 µM, respectively. Also, the TGI with BT-549 breast was 5.62 µM; in the assay on EKVX NSCLC it was 5.01 µM; with HCT-116 colon it was 3.15 µM; with K-562 leukemia it was 2.09 µM; in the assay on SF-295 CNS, 2.99 µM; in the assay on SF-539 CNS it was 3.15 µM. Also, the TGI with SNB-19 CNS stood at 10.7 µM; with UACC-62 melanoma it was 4.92 µM.

Consider `CCCCCCNC(=O)n1cc(F)c(=O)[nH]c1=O`, for which the GI50 is 2.56 µM with BT-549 breast; 21.1 µM with EKVX NSCLC; 1.99 µM in the assay on HCT-116 colon; 14.8 µM in the assay on HOP-92 NSCLC; 2.43 µM in the assay with HT29 colon; 0.514 µM in the assay with SF-539 CNS. Besides, the GI50 in the assay on SNB-19 CNS is 7.48 µM; in the assay with UACC-62 melanoma, 2.8 µM. Also, the TGI with BT-549 breast was 24.9 µM; in the assay on EKVX NSCLC, more than 100 µM; in the assay on HCT-116 colon, 15.3 µM; in the assay with HOP-92 NSCLC, 50 µM; with HT29 colon it was 19.3 µM; in the assay on SF-539 CNS, 15.1 µM. Moreover, the values for the TGI with SNB-19 CNS and in the assay on UACC-62 melanoma were 56.3 µM and 25 µM, respectively.

As for `COC(=O)C(=O)C(C(=O)C(N)=O)c1nc2ccc(C(=O)c3ccccc3)cc2[nH]c1=O` (stereo not drawn), the TGI with BT-549 breast, in the assay with EKVX NSCLC, with HCT-116 colon, with HOP-92 NSCLC, in the assay with HT29 colon and with K-562 leukemia was more than 100 µM throughout. Further, the TGI with SF-295 CNS, with SF-539 CNS and in the assay on UACC-62 melanoma was more than 100 µM each time.

Regarding `CC(=O)c1cccc(-c2cccc(-c3ccn(CCN4CCOCC4)n3)c2)c1`, the GI50 was more than 20 µM in the assay on BT-549 breast; more than 20 µM in the assay on HCT-116 colon; 16.2 µM in the assay with HOP-92 NSCLC; more than 20 µM in the assay on HT29 colon; more than 20 µM in the assay on K-562 leukemia; more than 20 µM in the assay with SF-539 CNS. Moreover, the GI50 with UACC-62 melanoma was more than 20 µM. In addition, the TGI in the assay with BT-549 breast, in the assay with HCT-116 colon, in the assay with HOP-92 NSCLC, in the assay on HT29 colon, in the assay on K-562 leukemia and with SF-539 CNS was more than 20 µM in each case. Further, in the assay on UACC-62 melanoma, the TGI was more than 20 µM.

As for `CNCCNc1nc2ccccc2c2c(=O)c3cc(OC)ccc3sc12`, the GI50 was 1.59 µM in the assay with BT-549 breast; 1.69 µM in the assay on EKVX NSCLC; 1.34 µM with HCT-116 colon; 1.29 µM in the assay with HOP-92 NSCLC; 1.52 µM in the assay on HT29 colon; 1.82 µM in the assay on SF-295 CNS. Besides, the GI50 with SF-539 CNS was 1.66 µM; in the assay with UACC-62 melanoma it was 1.69 µM. The TGI in the assay with BT-549 breast was 3.11 µM; in the assay on EKVX NSCLC it was 3.16 µM; with HCT-116 colon, 2.62 µM; in the assay with HOP-92 NSCLC, 3.32 µM; in the assay with HT29 colon, 3.26 µM; in the assay with SF-295 CNS, 3.36 µM. Further, the TGI with SF-539 CNS was determined as 3.03 µM; in the assay on UACC-62 melanoma, 3.13 µM.

Take `COc1ccc([C@@H](O)c2cc(-c3ncnc4cc(N5CCOCC5)ccc34)c(F)cc2Cl)nn1`: the GI50 was 1.44 µM with BT-549 breast; 5.35 µM in the assay with EKVX NSCLC; 3.29 µM with HCT-116 colon; 0.382 µM in the assay on HOP-92 NSCLC; 1.97 µM in the assay with HT29 colon; 3.78 µM in the assay on K-562 leukemia. Moreover, the GI50 with SF-295 CNS is 1.48 µM; with SF-539 CNS it was 2.13 µM; with SNB-19 CNS it was 10.8 µM. Also, the TGI in the assay on BT-549 breast was 20.3 µM; with EKVX NSCLC, 42.9 µM; in the assay with HCT-116 colon, 21.4 µM; with HOP-92 NSCLC, more than 100 µM; with HT29 colon, 20.9 µM; with K-562 leukemia, more than 100 µM. Besides, the TGI with SF-295 CNS is 25.8 µM; in the assay with SF-539 CNS, 12.7 µM; in the assay on SNB-19 CNS, more than 100 µM.

As to `O=C(O)c1cccc(/C=C/c2ccccc2)c1`, the TGI in the assay with BT-549 breast, in the assay with EKVX NSCLC, in the assay on HCT-116 colon, in the assay on HOP-92 NSCLC, in the assay on HT29 colon and in the assay with SF-295 CNS was more than 100 µM throughout. Besides, the TGI with SF-539 CNS, in the assay on SNB-19 CNS and in the assay with UACC-62 melanoma was more than 100 µM each time.

Consider `COC(=O)[C@H]1[C@H]2C[C@@H]3c4[nH]c5cc(OC)ccc5c4CCN3C[C@H]2C[C@@H](OC(=O)/C=C/c2cc(OC)c(OC)c(OC)c2)[C@@H]1OC`, for which the GI50 with BT-549 breast was 11.6 µM; in the assay with EKVX NSCLC, 14.1 µM; in the assay on HCT-116 colon, 3.18 µM; in the assay with HOP-92 NSCLC, 2.85 µM; with K-562 leukemia, 3.24 µM; in the assay on SF-295 CNS it was 5.54 µM. For the same compound, the GI50 with SF-539 CNS is 12.5 µM; in the assay with SNB-19 CNS, 6.46 µM; in the assay on UACC-62 melanoma, 14.5 µM. Further, the TGI with BT-549 breast is 24.6 µM; in the assay on EKVX NSCLC, more than 100 µM; with HCT-116 colon it was 9.57 µM; with HOP-92 NSCLC, 17.4 µM; with K-562 leukemia it was 38.4 µM; in the assay on SF-295 CNS, 24.9 µM. Besides, the TGI is 25.4 µM in the assay with SF-539 CNS, more than 100 µM in the assay on SNB-19 CNS and 33.4 µM with UACC-62 melanoma.

The record behind these values is PubChem BioAssay (NCI).
